Data published in patent US8802597B2, “Herbicidal pyrimidines” (E I du Pont de Nemours and Company, priority 2003, dated 2014).
Read-outs that look alike come from different tables or passages of the source.

Experiments:
Assay type in all cases: in vivo
[1] = test system: wheat (Triticum aestivum); assay: Test B pre/postemergence; conditions: Triticum aestivum; for plant injury at 500 g/ha: 500 g ai/ha
How it was run: (§1)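 Visual rating, 0 (no effect) to 100 (complete control) versus controls, taken 13–15 days after treatment in greenhouse. Compounds formulated in non-phytotoxic solvent plus surfactant; pre: sprayed after seeding; post: plants at 1- to 4-leaf stage, 2–18 cm.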

[2] = test system: lambsquarters (Chenopodium album); assay: Test B pre/postemergence; conditions: Chenopodium album; for pest or weed control at 125 g/ha: 125 g ai/ha; for pest or weed control at 500 g/ha: 500 g ai/ha
How it was run: as §1

[3] = test system: barnyardgrass (Echinochloa crus-galli); assay: Test B pre/postemergence; conditions: Echinochloa crus-galli; for pest or weed control at 125 g/ha: 125 g ai/ha; for pest or weed control at 500 g/ha: 500 g ai/ha
How it was run: as §1

[4] = test system: giant foxtail (Setaria faberii); assay: Test B pre/postemergence; conditions: Setaria faberi; for pest or weed control at 125 g/ha: 125 g ai/ha; for pest or weed control at 500 g/ha: 500 g ai/ha
How it was run: as §1

corn (Zea mays) = assay: Test B pre/postemergence; conditions: Zea mays
How it was run: as §1

[5] = test system: pigweed (Amaranthus retroflexus); assay: Test B pre/postemergence; conditions: Amaranthus retroflexus; for pest or weed control at 125 g/ha: 125 g ai/ha; for pest or weed control at 500 g/ha: 500 g ai/ha
How it was run: as §1

[6] = test system: crabgrass (Digitaria sanguinalis); assay: Test B pre/postemergence; conditions: Digitaria sanguinalis; for pest or weed control at 125 g/ha: 125 g ai/ha; for pest or weed control at 500 g/ha: 500 g ai/ha
How it was run: as §1

[7] = test system: morningglory (Ipomoea coccinea); assay: Test B pre/postemergence; conditions: Ipomoea; for pest or weed control at 125 g/ha: 125 g ai/ha; for pest or weed control at 500 g/ha: 500 g ai/ha
How it was run: as §1

[8] = test system: cocklebur (Xanthium strumarium); assay: Test B pre/postemergence; conditions: Xanthium strumarium; for pest or weed control at 125 g/ha: 125 g ai/ha; for pest or weed control at 500 g/ha: 500 g ai/ha
How it was run: as §1

[9] = test system: Surinam grass (Brachiaria decumbens); assay: Test B pre/postemergence; conditions: Urochloa decumbens; for pest or weed control at 125 g/ha: 125 g ai/ha; for pest or weed control at 500 g/ha: 500 g ai/ha
How it was run: as §1

[10] = test system: velvetleaf (Abutilon theophrasti); assay: Test B pre/postemergence; conditions: Abutilon theophrasti; for pest or weed control at 125 g/ha: 125 g ai/ha; for pest or weed control at 500 g/ha: 500 g ai/ha
How it was run: as §1

[11] = test system: barnyardgrass (Echinochloa crus-galli); assay: Test B flooded paddy test; conditions: Echinochloa crus-galli, Flood, 1000 g ai/ha; scale 0 (no effect) to 100 (complete control); read-out: Plant response rating, Barnyardgrass
How it was run: (§2)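 Rice, umbrella sedge, duck salad and barnyardgrass grown to 2-leaf stage under flooded paddy conditions and treated with formulated test chemicals. Kept in greenhouse 13–15 days, then visually rated against untreated controls on a 0–100 scale (0 no effect, 100 complete control).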

rice (Oryza sativa) = assay: Test B flooded paddy test; conditions: Oryza sativa, Flood, 1000 g ai/ha; scale 0 to 100; read-out: Plant response rating, Rice
How it was run: as §2

[12] = test system: duck salad (Heteranthera limosa); assay: Test B flooded paddy test; conditions: Heteranthera limosa, Flood, 1000 g ai/ha; scale 0 to 100; read-out: Plant response rating, Ducksalad
How it was run: as §2

[13] = test system: umbrella sedge (Cyperus difformis); assay: Test B flooded paddy test; conditions: Cyperus difformis, Flood, 1000 g ai/ha; scale 0 to 100; read-out: Plant response rating, Sedge, Umbrella
How it was run: as §2

[14] = test system: blackgrass (Alopecurus myosuroides); assay: Test B postemergence; conditions: Alopecurus myosuroides, post-emergence
How it was run: as §1

wild oat (Avena fatua) = assay: Test B postemergence; conditions: Avena fatua, post-emergence
How it was run: as §1

CNc1nc(C2CC2)nc(C(=O)OC)c1Br [Compound 5]
plant injury at 125 g/ha ([1]; post-emergence, Postemergence, 125 g ai/ha, scale 0 to 100 (0 no effect, 100 complete control), read-out: Wheat plant response rating): 50% | plant injury at 500 g/ha ([1]; post-emergence, Postemergence, scale 0 to 100, read-out: Plant response rating, Wheat): 60% | plant injury at 500 g/ha ([1]; pre-emergence, Preemergence, scale 0 to 100 (0 no effect, 100 complete control), read-out: Wheat plant response rating): 50% | pest or weed control at 125 g/ha ([2]; post-emergence, Postemergence, scale 0 to 100 (0 no effect, 100 complete control), read-out: Lambsquarters plant response rating): 100% | pest or weed control at 500 g/ha ([2]; post-emergence, Postemergence, scale 0 to 100, read-out: Plant response rating, Lambsquarters): 100% | pest or weed control at 125 g/ha ([2]; pre-emergence, Preemergence, scale 0 to 100 (0 no effect, 100 complete control), read-out: Plant response rating, Lambsquarters): 90% | pest or weed control at 500 g/ha ([2]; pre-emergence, Preemergence, scale 0 to 100 (0 no effect, 100 complete control), read-out: Lambsquarters plant response rating): 100% | pest or weed control at 125 g/ha ([3]; post-emergence, Postemergence, scale 0 to 100 (0 no effect, 100 complete control), read-out: Barnyardgrass plant response rating): 50% | pest or weed control at 500 g/ha ([3]; post-emergence, Postemergence, scale 0 to 100, read-out: Plant response rating, Barnyardgrass): 90% | pest or weed control at 125 g/ha ([3]; pre-emergence, Preemergence, scale 0 to 100 (0 no effect, 100 complete control), read-out: Plant response rating, Barnyardgrass): 10% | pest or weed control at 500 g/ha ([3]; pre-emergence, Preemergence, scale 0 to 100 (0 no effect, 100 complete control), read-out: Barnyardgrass plant response rating): 30% | pest or weed control at 125 g/ha ([4]; post-emergence, Postemergence, scale 0 to 100 (0 no effect, 100 complete control), read-out: Foxtail, Giant plant response rating): 40% | pest or weed control at 500 g/ha ([4]; post-emergence, Postemergence, scale 0 to 100, read-out: Plant response rating, Foxtail, Giant): 50% | pest or weed control at 125 g/ha ([4]; pre-emergence, Preemergence, scale 0 to 100 (0 no effect, 100 complete control), read-out: Plant response rating, Foxtail, Giant): 0% | pest or weed control at 500 g/ha ([4]; pre-emergence, Preemergence, scale 0 to 100 (0 no effect, 100 complete control), read-out: Foxtail, Giant plant response rating): 10% | plant injury at 125 g/ha (corn (Zea mays); post-emergence, Postemergence, 125 g ai/ha, scale 0 to 100 (0 no effect, 100 complete control), read-out: Corn plant response rating): 30% | Corn plant response rating (crop injury, 0 = no effect, 100 = complete kill) at 500 g/ha (corn (Zea mays); post-emergence, Postemergence, 500 g ai/ha, scale 0 to 100): 90% | Corn plant response rating (crop injury, 0 = no effect, 100 = complete kill) at 125 g/ha (corn (Zea mays); pre-emergence, Preemergence, 125 g ai/ha, scale 0 to 100 (0 no effect, 100 complete control)): 0% | plant injury at 500 g/ha (corn (Zea mays); pre-emergence, Preemergence, 500 g ai/ha, scale 0 to 100 (0 no effect, 100 complete control), read-out: Corn plant response rating): 70% | pest or weed control at 125 g/ha ([5]; post-emergence, Postemergence, scale 0 to 100 (0 no effect, 100 complete control), read-out: Pigweed plant response rating): 90% | pest or weed control at 500 g/ha ([5]; post-emergence, Postemergence, scale 0 to 100, read-out: Plant response rating, Pigweed): 100% | pest or weed control at 125 g/ha ([5]; pre-emergence, Preemergence, scale 0 to 100 (0 no effect, 100 complete control), read-out: Plant response rating, Pigweed): 90% | pest or weed control at 500 g/ha ([5]; pre-emergence, Preemergence, scale 0 to 100 (0 no effect, 100 complete control), read-out: Pigweed plant response rating): 90% | pest or weed control at 125 g/ha ([6]; post-emergence, Postemergence, scale 0 to 100 (0 no effect, 100 complete control), read-out: Crabgrass plant response rating): 50% | pest or weed control at 500 g/ha ([6]; post-emergence, Postemergence, scale 0 to 100, read-out: Plant response rating, Crabgrass): 90% | pest or weed control at 125 g/ha ([6]; pre-emergence, Preemergence, scale 0 to 100 (0 no effect, 100 complete control), read-out: Plant response rating, Crabgrass): 20% | pest or weed control at 500 g/ha ([6]; pre-emergence, Preemergence, scale 0 to 100 (0 no effect, 100 complete control), read-out: Crabgrass plant response rating): 70% | pest or weed control at 125 g/ha ([7]; post-emergence, Postemergence, scale 0 to 100 (0 no effect, 100 complete control), read-out: Morningglory plant response rating): 100% | pest or weed control at 500 g/ha ([7]; post-emergence, Postemergence, scale 0 to 100, read-out: Plant response rating, Morningglory): 100% | pest or weed control at 125 g/ha ([7]; pre-emergence, Preemergence, scale 0 to 100 (0 no effect, 100 complete control), read-out: Plant response rating, Morningglory): 70% | pest or weed control at 500 g/ha ([7]; pre-emergence, Preemergence, scale 0 to 100 (0 no effect, 100 complete control), read-out: Morningglory plant response rating): 80% | pest or weed control at 125 g/ha ([8]; post-emergence, Postemergence, scale 0 to 100 (0 no effect, 100 complete control), read-out: Cocklebur plant response rating): 80% | pest or weed control at 500 g/ha ([8]; post-emergence, Postemergence, scale 0 to 100, read-out: Plant response rating, Cocklebur): 100% | pest or weed control at 125 g/ha ([8]; pre-emergence, Preemergence, scale 0 to 100 (0 no effect, 100 complete control), read-out: Plant response rating, Cocklebur): 70% | pest or weed control at 500 g/ha ([8]; pre-emergence, Preemergence, scale 0 to 100 (0 no effect, 100 complete control), read-out: Cocklebur plant response rating): 80% | pest or weed control at 125 g/ha ([9]; post-emergence, Postemergence, scale 0 to 100 (0 no effect, 100 complete control), read-out: Surinam Grass plant response rating): 50% | pest or weed control at 500 g/ha ([9]; post-emergence, Postemergence, scale 0 to 100, read-out: Plant response rating, Surinam Grass): 80% | pest or weed control at 125 g/ha ([9]; pre-emergence, Preemergence, scale 0 to 100 (0 no effect, 100 complete control), read-out: Plant response rating, Surinam Grass): 0% | pest or weed control at 500 g/ha ([9]; pre-emergence, Preemergence, scale 0 to 100 (0 no effect, 100 complete control), read-out: Surinam Grass plant response rating): 10% | pest or weed control at 125 g/ha ([10]; post-emergence, Postemergence, scale 0 to 100 (0 no effect, 100 complete control), read-out: Velvetleaf plant response rating): 70% | pest or weed control at 500 g/ha ([10]; post-emergence, Postemergence, scale 0 to 100, read-out: Plant response rating, Velvetleaf): 90% | pest or weed control at 125 g/ha ([10]; pre-emergence, Preemergence, scale 0 to 100 (0 no effect, 100 complete control), read-out: Plant response rating, Velvetleaf): 70% | pest or weed control at 500 g/ha ([10]; pre-emergence, Preemergence, scale 0 to 100 (0 no effect, 100 complete control), read-out: Velvetleaf plant response rating): 90% | pest or weed control at 1000 g/ha [11]: 50% | plant injury at 1000 g/ha (rice (Oryza sativa)): 0% | pest or weed control at 1000 g/ha [12]: 90% | pest or weed control at 1000 g/ha [13]: 90% | pest or weed control at 125 g/ha ([14]; 125 g ai/ha, scale 0 to 100 (0 no effect, 100 complete control), read-out: Blackgrass plant response rating): 70% | pest or weed control at 500 g/ha ([14]; 500 g ai/ha, scale 0 to 100, read-out: Plant response rating, Blackgrass): 80% | pest or weed control at 125 g/ha (wild oat (Avena fatua); 125 g ai/ha, scale 0 to 100 (0 no effect, 100 complete control), read-out: Oat, Wild plant response rating): 40% | pest or weed control at 500 g/ha (wild oat (Avena fatua); 500 g ai/ha, scale 0 to 100, read-out: Plant response rating, Oat, Wild): 60%
